# Source: ChEMBL document CHEMBL5724914, “Linking interpersonal differences in gut microbiota composition and drug biotransformation activity” (2024)
# Conditions: human gut metagenome, 24 h, 2 µM
# Also: call rule not given here.
row,SMILES,Bacterial Biotransformation
1,CC(=O)CC(c1ccccc1)c1c(O)c2ccccc2oc1=O (stereo not given) [WARFARIN],Compound metabolized
2,COCCc1ccc(OCC(O)CNC(C)C)cc1.COCCc1ccc(OCC(O)CNC(C)C)cc1.O=C(O)C(O)C(O)C(=O)O (stereo not given) [METOPROLOL TARTRATE],Compound metabolized
3,COc1ccc2c(c1OC)C(=O)O[C@@H]2[C@H]1c2c(cc3c(c2OC)OCO3)CCN1C [NOSCAPINE],Compound metabolized

# Conditions: human gut metagenome, 24 h, 2 µM
# Remark: another data set of the same source
row,SMILES,Bacterial Biotransformation
1,CC(=O)CC(c1ccccc1)c1c(O)c2ccccc2oc1=O (stereo not given) [WARFARIN],Compound metabolized
2,COCCc1ccc(OCC(O)CNC(C)C)cc1.COCCc1ccc(OCC(O)CNC(C)C)cc1.O=C(O)C(O)C(O)C(=O)O (stereo not given) [METOPROLOL TARTRATE],Compound NOT metabolized
3,COc1ccc2c(c1OC)C(=O)O[C@@H]2[C@H]1c2c(cc3c(c2OC)OCO3)CCN1C [NOSCAPINE],Compound NOT metabolized

# Assay: (§1) The drug is tested on Z-029 corresponding to rat gut metagenome with ENA study accession number: PRJEB37062 and ENA sample accession number: ERS12561828 for biotransformation under anaerobic condition. The drug concentrations were measured over 9 timepoints collected between 0 and 24 hours of incubation by liquid-chromatography-coupled mass spectrometry (LC–MS)
# Conditions: 2 µM
row,SMILES,Bacterial Biotransformation
1,CC(=O)CC(c1ccccc1)c1c(O)c2ccccc2oc1=O (stereo not given) [WARFARIN],Compound NOT metabolized
2,COCCc1ccc(OCC(O)CNC(C)C)cc1.COCCc1ccc(OCC(O)CNC(C)C)cc1.O=C(O)C(O)C(O)C(=O)O (stereo not given) [METOPROLOL TARTRATE],Compound NOT metabolized
3,COc1ccc2c(c1OC)C(=O)O[C@@H]2[C@H]1c2c(cc3c(c2OC)OCO3)CCN1C [NOSCAPINE],Compound NOT metabolized

# Conditions: human gut metagenome, 24 h, 2 µM
# Remark: another data set of the same source
row,SMILES,Bacterial Biotransformation
1,CC(=O)CC(c1ccccc1)c1c(O)c2ccccc2oc1=O (stereo not given) [WARFARIN],Compound metabolized
2,COCCc1ccc(OCC(O)CNC(C)C)cc1.COCCc1ccc(OCC(O)CNC(C)C)cc1.O=C(O)C(O)C(O)C(=O)O (stereo not given) [METOPROLOL TARTRATE],Compound NOT metabolized
3,COc1ccc2c(c1OC)C(=O)O[C@@H]2[C@H]1c2c(cc3c(c2OC)OCO3)CCN1C [NOSCAPINE],Compound metabolized

# Conditions: human gut metagenome, 24 h, 2 µM
# Remark: another data set of the same source
row,SMILES,Bacterial Biotransformation
1,CC(=O)CC(c1ccccc1)c1c(O)c2ccccc2oc1=O (stereo not given) [WARFARIN],Compound metabolized
2,COCCc1ccc(OCC(O)CNC(C)C)cc1.COCCc1ccc(OCC(O)CNC(C)C)cc1.O=C(O)C(O)C(O)C(=O)O (stereo not given) [METOPROLOL TARTRATE],Compound NOT metabolized
3,COc1ccc2c(c1OC)C(=O)O[C@@H]2[C@H]1c2c(cc3c(c2OC)OCO3)CCN1C [NOSCAPINE],Compound metabolized

# Assay: as §1, with “on WLS-082” for “on Z-029”, “to human” for “to rat”, “number: ERS12561751” for “number: ERS12561828”
# Conditions: 2 µM
row,SMILES,Bacterial Biotransformation
1,CC(=O)CC(c1ccccc1)c1c(O)c2ccccc2oc1=O (stereo not given) [WARFARIN],Compound metabolized
2,COCCc1ccc(OCC(O)CNC(C)C)cc1.COCCc1ccc(OCC(O)CNC(C)C)cc1.O=C(O)C(O)C(O)C(=O)O (stereo not given) [METOPROLOL TARTRATE],Compound NOT metabolized
3,COc1ccc2c(c1OC)C(=O)O[C@@H]2[C@H]1c2c(cc3c(c2OC)OCO3)CCN1C [NOSCAPINE],Compound NOT metabolized

# Assay: as §1, with “Z-012” for “Z-029”, “to” for “to rat gut”, “ERS12561812” for “ERS12561828”
# Conditions: 2 µM
row,SMILES,Bacterial Biotransformation
1,CC(=O)CC(c1ccccc1)c1c(O)c2ccccc2oc1=O (stereo not given) [WARFARIN],Compound metabolized
2,COCCc1ccc(OCC(O)CNC(C)C)cc1.COCCc1ccc(OCC(O)CNC(C)C)cc1.O=C(O)C(O)C(O)C(=O)O (stereo not given) [METOPROLOL TARTRATE],Compound NOT metabolized
3,COc1ccc2c(c1OC)C(=O)O[C@@H]2[C@H]1c2c(cc3c(c2OC)OCO3)CCN1C [NOSCAPINE],Compound NOT metabolized

# Assay: as §1, with “on WLS-240” for “on Z-029”, “to human” for “to rat”, “number: ERS12561773” for “number: ERS12561828”
# Conditions: 2 µM
row,SMILES,Bacterial Biotransformation
1,CC(=O)CC(c1ccccc1)c1c(O)c2ccccc2oc1=O (stereo not given) [WARFARIN],Compound metabolized
2,COCCc1ccc(OCC(O)CNC(C)C)cc1.COCCc1ccc(OCC(O)CNC(C)C)cc1.O=C(O)C(O)C(O)C(=O)O (stereo not given) [METOPROLOL TARTRATE],Compound metabolized
3,COc1ccc2c(c1OC)C(=O)O[C@@H]2[C@H]1c2c(cc3c(c2OC)OCO3)CCN1C [NOSCAPINE],Compound metabolized

# Assay: as §1, with “on Z-003” for “on Z-029”, “to pig” for “to rat”, “number: ERS12561803” for “number: ERS12561828”
# Conditions: 2 µM
row,SMILES,Bacterial Biotransformation
1,CC(=O)CC(c1ccccc1)c1c(O)c2ccccc2oc1=O (stereo not given) [WARFARIN],Compound metabolized
2,COCCc1ccc(OCC(O)CNC(C)C)cc1.COCCc1ccc(OCC(O)CNC(C)C)cc1.O=C(O)C(O)C(O)C(=O)O (stereo not given) [METOPROLOL TARTRATE],Compound metabolized
3,COc1ccc2c(c1OC)C(=O)O[C@@H]2[C@H]1c2c(cc3c(c2OC)OCO3)CCN1C [NOSCAPINE],Compound metabolized

# Conditions: human gut metagenome, 24 h, 2 µM
# Remark: another data set of the same source
row,SMILES,Bacterial Biotransformation
1,CC(=O)CC(c1ccccc1)c1c(O)c2ccccc2oc1=O (stereo not given) [WARFARIN],Compound metabolized
2,COCCc1ccc(OCC(O)CNC(C)C)cc1.COCCc1ccc(OCC(O)CNC(C)C)cc1.O=C(O)C(O)C(O)C(=O)O (stereo not given) [METOPROLOL TARTRATE],Compound NOT metabolized
3,COc1ccc2c(c1OC)C(=O)O[C@@H]2[C@H]1c2c(cc3c(c2OC)OCO3)CCN1C [NOSCAPINE],Compound NOT metabolized

# Conditions: human gut metagenome, 24 h, 2 µM
# Remark: another data set of the same source
row,SMILES,Bacterial Biotransformation
1,CC(=O)CC(c1ccccc1)c1c(O)c2ccccc2oc1=O (stereo not given) [WARFARIN],Compound metabolized
2,COCCc1ccc(OCC(O)CNC(C)C)cc1.COCCc1ccc(OCC(O)CNC(C)C)cc1.O=C(O)C(O)C(O)C(=O)O (stereo not given) [METOPROLOL TARTRATE],Compound NOT metabolized
3,COc1ccc2c(c1OC)C(=O)O[C@@H]2[C@H]1c2c(cc3c(c2OC)OCO3)CCN1C [NOSCAPINE],Compound NOT metabolized

# Assay: as §1, with “on WLS-350” for “on Z-029”, “to human” for “to rat”, “number: ERS12561789” for “number: ERS12561828”
# Conditions: 2 µM
row,SMILES,Bacterial Biotransformation
1,CC(=O)CC(c1ccccc1)c1c(O)c2ccccc2oc1=O (stereo not given) [WARFARIN],Compound metabolized
2,COCCc1ccc(OCC(O)CNC(C)C)cc1.COCCc1ccc(OCC(O)CNC(C)C)cc1.O=C(O)C(O)C(O)C(=O)O (stereo not given) [METOPROLOL TARTRATE],Compound metabolized
3,COc1ccc2c(c1OC)C(=O)O[C@@H]2[C@H]1c2c(cc3c(c2OC)OCO3)CCN1C [NOSCAPINE],Compound metabolized

# Conditions: human gut metagenome, 24 h, 2 µM
# Remark: another data set of the same source
row,SMILES,Bacterial Biotransformation
1,CC(=O)CC(c1ccccc1)c1c(O)c2ccccc2oc1=O (stereo not given) [WARFARIN],Compound metabolized
2,COCCc1ccc(OCC(O)CNC(C)C)cc1.COCCc1ccc(OCC(O)CNC(C)C)cc1.O=C(O)C(O)C(O)C(=O)O (stereo not given) [METOPROLOL TARTRATE],Compound NOT metabolized
3,COc1ccc2c(c1OC)C(=O)O[C@@H]2[C@H]1c2c(cc3c(c2OC)OCO3)CCN1C [NOSCAPINE],Compound metabolized

# Assay: as §1, with “on Z-018” for “on Z-029”, “to pig” for “to rat”, “number: ERS12561817” for “number: ERS12561828”
# Conditions: 2 µM
row,SMILES,Bacterial Biotransformation
1,CC(=O)CC(c1ccccc1)c1c(O)c2ccccc2oc1=O (stereo not given) [WARFARIN],Compound metabolized
2,COCCc1ccc(OCC(O)CNC(C)C)cc1.COCCc1ccc(OCC(O)CNC(C)C)cc1.O=C(O)C(O)C(O)C(=O)O (stereo not given) [METOPROLOL TARTRATE],Compound NOT metabolized
3,COc1ccc2c(c1OC)C(=O)O[C@@H]2[C@H]1c2c(cc3c(c2OC)OCO3)CCN1C [NOSCAPINE],Compound metabolized

# Conditions: human gut metagenome, 24 h, 2 µM
# Remark: another data set of the same source
row,SMILES,Bacterial Biotransformation
1,CC(=O)CC(c1ccccc1)c1c(O)c2ccccc2oc1=O (stereo not given) [WARFARIN],Compound metabolized
2,COCCc1ccc(OCC(O)CNC(C)C)cc1.COCCc1ccc(OCC(O)CNC(C)C)cc1.O=C(O)C(O)C(O)C(=O)O (stereo not given) [METOPROLOL TARTRATE],Compound metabolized
3,COc1ccc2c(c1OC)C(=O)O[C@@H]2[C@H]1c2c(cc3c(c2OC)OCO3)CCN1C [NOSCAPINE],Compound NOT metabolized

# Assay: as §1, with “Z-005” for “Z-029”, “to” for “to rat gut”, “ERS12561805” for “ERS12561828”
# Conditions: 2 µM
row,SMILES,Bacterial Biotransformation
1,CC(=O)CC(c1ccccc1)c1c(O)c2ccccc2oc1=O (stereo not given) [WARFARIN],Compound NOT metabolized
2,COCCc1ccc(OCC(O)CNC(C)C)cc1.COCCc1ccc(OCC(O)CNC(C)C)cc1.O=C(O)C(O)C(O)C(=O)O (stereo not given) [METOPROLOL TARTRATE],Compound NOT metabolized
3,COc1ccc2c(c1OC)C(=O)O[C@@H]2[C@H]1c2c(cc3c(c2OC)OCO3)CCN1C [NOSCAPINE],Compound metabolized

# Conditions: human gut metagenome, 24 h, 2 µM
# Remark: another data set of the same source
row,SMILES,Bacterial Biotransformation
1,CC(=O)CC(c1ccccc1)c1c(O)c2ccccc2oc1=O (stereo not given) [WARFARIN],Compound metabolized
2,COCCc1ccc(OCC(O)CNC(C)C)cc1.COCCc1ccc(OCC(O)CNC(C)C)cc1.O=C(O)C(O)C(O)C(=O)O (stereo not given) [METOPROLOL TARTRATE],Compound NOT metabolized
3,COc1ccc2c(c1OC)C(=O)O[C@@H]2[C@H]1c2c(cc3c(c2OC)OCO3)CCN1C [NOSCAPINE],Compound NOT metabolized

# Conditions: human gut metagenome, 24 h, 2 µM
# Remark: another data set of the same source
row,SMILES,Bacterial Biotransformation
1,CC(=O)CC(c1ccccc1)c1c(O)c2ccccc2oc1=O (stereo not given) [WARFARIN],Compound metabolized
2,COCCc1ccc(OCC(O)CNC(C)C)cc1.COCCc1ccc(OCC(O)CNC(C)C)cc1.O=C(O)C(O)C(O)C(=O)O (stereo not given) [METOPROLOL TARTRATE],Compound NOT metabolized
3,COc1ccc2c(c1OC)C(=O)O[C@@H]2[C@H]1c2c(cc3c(c2OC)OCO3)CCN1C [NOSCAPINE],Compound metabolized

# Assay: as §1, with “Z-007” for “Z-029”, “ERS12561807” for “ERS12561828”
# Conditions: 2 µM
row,SMILES,Bacterial Biotransformation
1,CC(=O)CC(c1ccccc1)c1c(O)c2ccccc2oc1=O (stereo not given) [WARFARIN],Compound NOT metabolized
2,COCCc1ccc(OCC(O)CNC(C)C)cc1.COCCc1ccc(OCC(O)CNC(C)C)cc1.O=C(O)C(O)C(O)C(=O)O (stereo not given) [METOPROLOL TARTRATE],Compound NOT metabolized
3,COc1ccc2c(c1OC)C(=O)O[C@@H]2[C@H]1c2c(cc3c(c2OC)OCO3)CCN1C [NOSCAPINE],Compound NOT metabolized

# Conditions: human gut metagenome, 24 h, 2 µM
# Remark: another data set of the same source
row,SMILES,Bacterial Biotransformation
1,CC(=O)CC(c1ccccc1)c1c(O)c2ccccc2oc1=O (stereo not given) [WARFARIN],Compound metabolized
2,COCCc1ccc(OCC(O)CNC(C)C)cc1.COCCc1ccc(OCC(O)CNC(C)C)cc1.O=C(O)C(O)C(O)C(=O)O (stereo not given) [METOPROLOL TARTRATE],Compound metabolized
3,COc1ccc2c(c1OC)C(=O)O[C@@H]2[C@H]1c2c(cc3c(c2OC)OCO3)CCN1C [NOSCAPINE],Compound metabolized
